Laboratory results from patent US20220411414A1, “INHIBITORS FOR THE B-CATENIN/B-CELL LYMPHOMA 9 (BCL9) PROTEIN-PROTEIN INTERACTION” (H. LEE MOFFITT CANCER CENTER AND RESEARCH INSTITUTE, INC., priority 2018, published 2022).

Key:
[1] = test system: mRNA expression of AXIN2, LEF1, cyclin D1 (Wnt target genes); assay: Quantitative real-time PCR of Wnt target genes in SW480 cells; assay type: cell-based, human; conditions: SW480, 24 h, FIG. 2
Description: House-keeper gene HERT was used as a reference. Each set of data is expressed as mean±standard deviation (n=3).
Axin2, cyclin D1, c-myc, and LEF1 are the target genes of the canonical Wnt signaling pathway. Axin 2 is a specific target gene for the canonical Wnt signaling pathway (a. Yan D, et al., Elevated expression of axin2 and hnkd mRNA provides evidence that Wnt/beta-catenin signaling is activated in human colon tumors. Proc Natl Acad Sci USA. 2001 Dec. 18; 98(26):14973-8; b. Jho E H, et al., Wnt/beta-catenin/Tcf signaling induces the transcription of Axin2, a negative regulator of the signaling pathway. Mol Cell Biol. 2002 February; 22(4):1172-83; c. Leung J Y, et al., Activation of AXIN2 expression by beta-catenin-T cell factor. A feedback repressor pathway regulating Wnt signaling. J Biol Chem. 2002 Jun. 14; 277(24):21657-65; d. Lustig B, et al., Negative feedback loop of Wnt signaling through upregulation of conductin/axin2 in colorectal and liver tumors. Mol Cell Biol. 2002 February; 22(4):1184-93). Cyclin D1 (a. Tetsu O, et al., Nature. 1999 Apr. 1; 398(6726):422-6; b. Sansom O J, et al., Cyclin D1 is not an immediate target of beta-catenin following Apc loss in the intestine. J Biol Chem. 2005 Aug. 5; 280(31):28463-7; c. Shtutman M, et al., The cyclin D1 gene is a target of the beta-catenin/LEF-1 pathway. Proc Natl Acad Sci USA. 1999 May 11; 96(10):5522-7; d. Lin S Y, et al., Beta-catenin, a novel prognostic marker for breast cancer: its roles in cyclin D1 expression and cancer progression. Proc Natl Acad Sci USA. 2000 Apr. 11; 97(8):4262-6), c-myc (a. He T C, et al., Identification of c-MYC as a target of the APC pathway. Science. 1998 September 4; 281(5382):1509-12; b. Sansom O J, et al., Myc deletion rescues Ape deficiency in the small intestine. Nature. 2007 Apr. 5; 446(7136):676-9), and LEF1 (Hovanes K, et al., Beta-catenin-sensitive isoforms of lymphoid enhancer factor-1 are selectively expressed in colon cancer. Nat Genet. 2001 May; 28(1):53-7.; Filali M, et al., Wnt-3A/beta-catenin signaling induces transcription from the LEF-1 promoter. J Biol Chem. 2002 Sep. 6; 277(36):33398-410; Li T W, et al., Wnt activation and alternative promoter repression of LEF1 in colon cancer. Mol Cell Biol. 2006 July; 26(14):5284-99; Nguyen D X, et al., WNT/TCF signaling through LEF1 and HOXB9 mediates lung adenocarcinoma metastasis. Cell. 2009 Jul. […] Quantitative real-time PCR studies were also conducted to evaluate the inhibitory effects of 4 on the mRNA levels of Wnt target genes.
Quantitative real time PCR analysis. SW480 cells at 1×10^6/mL were treated with different concentrations of 4 for 24 h. […] Quantitative PCR (qPCR) was performed using the iQ™ SYBR green supernix kit (170-8880, BIO-RAD) on an iQ^5 multicolor real-time PCR reaction system (BIO-RAD). […]

[2] = test system: TOPFlash (three wild-type Tcf binding sites) luciferase reporter; assay: Wnt-responsive TOPFlash luciferase reporter assay, β-catenin-activated HEK239; assay type: cell-based; conditions: 24 h treatment, read-out: TOPFlash IC50 ± SD β-catenin-activated HEK239
Experimental: The TOPFlash luciferase reporter assay (in which the luciferase reporter has three wild-type Tcf4 binding sites) was performed with 4 and 5. Cell transfection and luciferase assay. FuGENE6 (E269A, Promega) 96 well plate format was used for the transfection of HEK293 and SW480 cells according to the manufacturer's instruction. HEK293 cells were co-transfected with 45 ng of TOPFlash or FOPFlash reporter gene, 135 ng pcDNA3.1-β-catenin, and 20 ng of pCMV-RL normalization reporter gene. SW480 cells were co-transfected with 60 ng of the TOPFlash or FOPFlash reporter gene and 40 ng of pCMV-RL normalization reporter. Cells were cultured in DMEM and 10% FBS at 37° C. for 24 h, and different concentrations of inhibitors or DMSO was added. After 24 h, the luciferase reporter activity was measured using the Dual-Glo system (E2940, Promega). Normalized luciferase activity in response to the treatment with 4 and 5 was compared with that obtained from the cells treated with DMSO. Experiments were performed in triplicate.

## Cl.Cl.O=C(Nc1ccc(O[C@@H]2CCNC2)c(-c2cccc(-c3nn[nH]n3)c2)c1)c1ccc(O[C@H]2CCNC2)c(-c2ccc(F)c(F)c2)c1 [Compound 4, 3′,4′-difluoro-6-(((S)-pyrrolidin-3-yl)oxy)-N-(6-(((R)-pyrrolidin-3-yl)oxy)-3′-(2H-tetrazol-5-yl)-[1,1′-biphenyl]-3-yl)-[1,1′-biphenyl]-3-carboxamide dihydrochloride]
[1]
  mRNA of house-keeper gene HERT: did not inhibit
  transcription of Axin2: dose-dependently inhibit
  transcription of LEF1: dose-dependently inhibit
  transcription of cyclin D1: dose-dependently inhibit
[2]
  IC50: 25 ± 4.1 µM
